{"source": "patent US6806267B1", "about": "“Apoptosis-inducing compounds” (priority 1998, dated 2004)", "key": {"p38": {"test_system": "p38", "test": "Western blot of p38 activation in K562 cells", "assay_type": "cell-based, human", "details": "K562, 5 min up to 8 hours"}, "[1]": {"test_system": "CML cell lines K562, KYO.1 and Lama 84", "test": "Apoptosis in CML cell lines, cytospin and staining", "assay_type": "cell-based, human", "details": "24 hours (10 μM elsewhere in the source)"}, "MCF-7 cells": {"test_system": "MCF-7 cells", "test": "Apoptosis in MCF-7 cells", "assay_type": "cell-based, human", "experimental": "MCF-7 cells were maintained in minimum essential medium supplemented with non-essential amino acids (1% v/v), glutamine (1 mM), FCS (10%) and sub-cultured by the protocol described for Hela cells.\nIn all experiments performed, cells were seeded at a density of 3×10^5 cells/ml into 24-well plates (1 ml well) and immediately treated with the indicated compound. All drugs were diluted from freshly prepared ethanol stock solutions. The final concentration of ethanol in the wells was always 1% (vol/vol); a concentration which by itself had no effect on the cells tested. Following exposure to the appropriate drug, the cells (100 μL) were cytospun onto glass slides pre-coated with poly-L-lysine using a Cytospin 3™ cytocentrifuige (Shandon). They were then stained using the Rapi-Diff kit (eosinm ethylene blue) under the conditions described by the manufacturer. The percent apoptosis and necrosis was determined by counting approximately 300 cells under a light microscope with the aid of a graticule inserted into the eyepiece. At least 3 fields of view per slide, with an average of approximately 100 cells per field, were counted."}, "JNK1 and JNK2": {"test_system": "JNK1 and JNK2", "assay_type": "cell-based, human", "details": "K562 cells"}, "Jurkat cells": {"test_system": "Jurkat cells", "assay_type": "cell-based, human", "details": "1 hour, then etoposide 16 hours"}, "Cytochrome C [2]": {"test_system": "Cytochrome C", "test": "Cytochrome C Western blot, CML cell cytosol", "assay_type": "cell-based, human", "details": "K562, KYO.1, Lama 84; 16 hour treatment", "experimental": "(§1) Cells (15×10^6) were harvested by centrifugation at 1800 g for 10 min at 4° C. After being washed once with ice-cold phosphate-buffered saline, the cell pellet was suspended in 100 μl of ice-cold buffer A (20 mM Hepes, pH 7.5, 10 mM KCl, 1.5 mM MgCl2, 1 mM sodium EDTA, 1 mM sodium EGTA, 1 mM dithiotreitol and 0.1 mM phenylmethylsulfonyl fluoride) supplemented with protease inhibitors (5 μg/ml pepstatin A, 10 μg/ml leupeptin and 2 μg/ml of aprotinin). The cells were left to sit on ice for 15 min and then centrifuged at 20,000 g for 20 min. The resulting supernatant was stored at −70° C. until measurement of cytochrome C. Protein determination was measured by using the Bradford assay. Equal amounts of protein were resolved by SDS-polyacrylamide gel electrophoresis in 15% gels and transferred onto nitro-cellulose. Membranes were blocked with phosphate-buffered saline/5% (w/v) dry milk and probed with anti-cytochrome C antibody. Blots were washed, incubated with goat anti-mouse IgG peroxidase conjugate and developed by ECL according to the manufacturer's recommendations."}, "[3]": {"test_system": "normal bone marrow progenitor cells", "assay_type": "cell-based, human", "details": "10 μM, 72 hours; for colonies scored, mean of 10 normal bone marrow samples: colonies scored after 14 days", "experimental": "Bone Marrow samples from donor patients were suspended in RPMI and heparin. Approximately 5 mls of Lympoprep was poured into a sterilin and the bone marrow sample was gently layered on top. The sample was centrifuged at 1800 g for 25 min, brake at 2. Following centrifugation, the buffy coat layer which contained the mononucleur fraction was gently removed using a sterile pasteur pipette and was transferred to a fresh tube. Approximately 10 mls of RPMI was added and the sample was centrifuged at 1800 g for 10 minutes, brake at 9. The supernatant was removed and the wash repeated. The pellet was resuspended in approximately 2 mls of RPMI. 20 μl was removed from the sample, mixed with 380 μl of ethidium bromide/acridine orange mix.(each at 100 μg/ml in PBS, 1:1 v/v). Ethidium bromide and acridine orange are fluorescent dyes which bind DNA. Acridine orange intercalates into DNA giving it a green appearance. Ethidium bromide is taken up by non-viable cells only. This dye also intercalates into the DNA, making it appear orange. The cells were counted under a fluorescent microscope and the volume of cells was adjusted to obtain 4×10^6 cells per ml. Cells were divided into 2 flasks and treated with 0.5% (v/v) ethanol or 10 μM PBOX-6. 100 μl was taken from each flask and added to 1.9 mls of culture media (0.58 ml methylcellulose, 0.55 ml FCS, 0.18 ml BSA, 0.21 ml RPMI, 5 U/ml of granulocytoe monocyte-colony stimulating factor (GM-CSF) and 20 U/ml of erythropoietin (EPO). Tubes were mixed by vortexing and allowed to stand for 1 min before adding 0.5 ml into each of three wells of a 4 well dish. 0.5 ml of sterile water was added to the fourth well. Plates were incubated at 37° C. for 14 days. After 14 days, colonies were scored. A colony is scored as a cluster containing >40 cells, which originates form one stem cell. […]"}, "Cytochrome C [4]": {"test_system": "Cytochrome C", "test": "Cytochrome C Western blot, HL-60 cytosol", "assay_type": "cell-based, human", "details": "HL-60 cells", "experimental": "as §1"}, "[5]": {"test_system": "tyrosine phosphorylated proteins", "test": "Protein tyrosine phosphorylation Western blot, K562 cells", "assay_type": "cell-based, human", "experimental": "Jurkat and CML cells (5×10^6) were harvested by centrifuigation at 1800 g for 10 min at 4° C. After being washed once with ice-cold phosphate-buffered saline, the cell pellet was suspended in 100 μl of ice-cold lysis buffer (50 mM Tris-HCl, pH 8.0, 150 mM NaCl, 0.1%.SDS, 1% Triton X-100, 1 mM sodium 1 mM phenylmethylsulfonyl, 10 ng/ml leupeptin and 10 ng/ml of aprotinin). The cells were left to sit on ice for 10 min and then centrifuged at 20,000 g for 20 min. The resulting supernatant was stored at −70° C. until measurement of tyrosine phosphorylation. Protein determination was measured by using the Bradford assay. Equal amounts of protein were resolved by SDS-polyacrylamide gel electrophoresis in 15% gels and transferred onto polyvinylidene difluoride (PVDF) membranes. Membranes were blocked with Tris-buffered saline with Tween 20 (10 mM Tris-HCl, pH 8.0, 150 mM NaCl, 0.05% Tween 20) containing 1% w/v BSA and probed with anti-phosphotyrosine antibody. Blots were washed, incubated with goat anti-mouse IgG peroxidase conjugate and developed by ECL according to the manufacturer's recommendations."}, "HL-60 cells": {"test_system": "HL-60 cells", "test": "Apoptosis in HL-60 cells, cytospin and Rapi-Diff staining"}, "K562 cells": {"test_system": "K562 cells", "test": "Apoptosis in K562 cells, cytospin and staining", "assay_type": "cell-based, human", "details": "K562, 16 hours"}, "[6]": {"details": "HL-60 cells and the 3 CML cell lines"}}, "note": "Where two headings read alike, the source gives them in different places.", "data": [{"molecule": "CN(C)C(=O)OC1=C(c2cccc3ccccc23)Oc2ccccc2-n2cccc21", "note": "[PBOX-6, 7-((Dimethylcarbamoyl)oxy)-6-(1-naphthyl)pyrrolo[2,1-d][1,5]benzoxazepine]", "values": [{"measurement": "activation of p38", "setting": "p38", "result": "failed to activate p38"}, {"measurement": "cells that had undergone apoptosis", "setting": "[1]", "result": "approximately 50%"}, {"measurement": "concentration at which morphological features of apoptosis were first observed", "setting": "MCF-7 cells", "result": 5, "unit": "μM"}, {"measurement": "time at which JNK activation first becomes visible", "setting": "JNK1 and JNK2", "result": 15, "unit": "min"}, {"measurement": "time of peak JNK activation", "setting": "JNK1 and JNK2", "result": "30 to 45", "unit": "min"}, {"measurement": "effect of pretreatment on etoposide induced apoptosis", "setting": "Jurkat cells", "result": "does not protect against etoposide induced apoptosis"}, {"measurement": "cytochrome C levels in the cytosol", "setting": "Cytochrome C [2]", "result": "unchanged"}, {"measurement": "effect on normal bone marrow progenitor cells", "setting": "[3]", "result": "no significant effect"}, {"measurement": "colonies scored, mean of 10 normal bone marrow samples", "setting": "[3]", "result": 17}, {"measurement": "colonies scored, mean of 10 normal bone marrow samples", "setting": "[3]; listed as PBOX 6", "result": 16.9}, {"measurement": "Cytochrome C in the cytosol", "setting": "Cytochrome C [4]", "result": "accumulation of Cytochrome C in the cytosol"}, {"measurement": "tyrosine phosphorylation status of proteins", "setting": "[5]; K562, 5, 15 or 30 min", "result": "no effect"}, {"measurement": "tyrosine phosphorylation status of proteins", "setting": "[5]; K562, 16 hours, proteins approx 63 kDa and 71 kDa", "result": "increase in the phosphorylation of two proteins"}, {"measurement": "apoptosis below a final concentration of 5 μM", "setting": "HL-60 cells; HL-60 cells", "result": "negligible"}, {"measurement": "time at which morphological signs of apoptosis became apparent", "setting": "HL-60 cells; HL-60 cells", "result": 6, "unit": "hours"}, {"measurement": "concentration at which apoptosis was first observed", "setting": "HL-60 cells; [6]", "result": 5, "unit": "µM"}, {"measurement": "time after which apoptosis was first observed", "setting": "HL-60 cells; [6]", "result": 4, "unit": "h"}, {"measurement": "degree of necrosis", "setting": "HL-60 cells; HL-60 cells, 10 μM, 16 hours", "result": "negligible"}, {"measurement": "cytotoxicity at 10 µM", "setting": "HL-60 cells; Homo sapiens, HL-60, 16 h, read-out: % Apoptosis", "result": "38.6 ± 4.6", "unit": "%"}, {"measurement": "cells that had undergone apoptosis", "setting": "K562 cells", "result": "40-50%"}]}]}
